The text below walks through data of ChEMBL document CHEMBL1201862, “PubChem BioAssay data set” (2004).

The target in assay [1] is Beta-2 adrenergic receptor (Homo sapiens, UniProt P07550). Kind of assay: beta2AR agonists driving receptor internalization, dose response, cell-based, FAP fluorogen, flow cytometry, cherry pick 1 (AID 588763). Type of assay: functional.
Assay [2] can be described thus: insulin promoter down-regulators in MIN6 cells, imaging, high-content screening, mouse beta cells (AID 1628). It is filed as functional.
Assay [3] is described as follows: cytotoxicity in MIN6 insulinoma cells, dose response, cytotoxicity control, cell-based, mouse insulinoma (AID 2122).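 Note: confirmatory high-throughput counterscreen run to flag cytotoxic compounds; mouse MIN-6 beta cells carrying an insulin promoter eGFP reporter.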 Type of assay: functional.
The target in assay [4] is 26S proteasome non-ATPase regulatory subunit 14 (Homo sapiens, UniProt O00487). Kind of assay: inhibition of proteasome subunit RPN11 – biochemical, fluorescence polarization, uHTS hits, confirmation (AID 602368). Type of assay: functional.
Chain of 26S proteasome non-ATPase regulatory subunit 14 (O00487 whole entry): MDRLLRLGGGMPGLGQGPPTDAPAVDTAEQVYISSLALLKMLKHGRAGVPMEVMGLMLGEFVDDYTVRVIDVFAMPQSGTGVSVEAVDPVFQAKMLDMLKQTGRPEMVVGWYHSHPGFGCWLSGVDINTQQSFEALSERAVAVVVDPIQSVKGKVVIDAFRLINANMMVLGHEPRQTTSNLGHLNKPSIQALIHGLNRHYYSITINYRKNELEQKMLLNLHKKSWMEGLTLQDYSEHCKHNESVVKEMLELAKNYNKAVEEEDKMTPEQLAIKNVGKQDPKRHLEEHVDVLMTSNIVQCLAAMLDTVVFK
A short description of assay [5]: microbe, parasite or virus in culture. Type of assay: functional. As to conditions: Mycobacterium tuberculosis.
Another assay concerns the target Prothrombin (Bos taurus, UniProt P00735). As to the kind of experiment: thrombin inhibition, dose response, biochemical, fluorescence polarization, uHTS hits (AID 602369). It is filed as functional.
The target in assay [6] is Voltage-gated inwardly rectifying potassium channel KCNH2 (Homo sapiens, UniProt Q12809). The settings on record: Potency.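 Note: confirmatory quantitative high-throughput screen measuring inhibition of hERG channel activity.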
Chain of Voltage-gated inwardly rectifying potassium channel KCNH2 (Q12809 whole entry): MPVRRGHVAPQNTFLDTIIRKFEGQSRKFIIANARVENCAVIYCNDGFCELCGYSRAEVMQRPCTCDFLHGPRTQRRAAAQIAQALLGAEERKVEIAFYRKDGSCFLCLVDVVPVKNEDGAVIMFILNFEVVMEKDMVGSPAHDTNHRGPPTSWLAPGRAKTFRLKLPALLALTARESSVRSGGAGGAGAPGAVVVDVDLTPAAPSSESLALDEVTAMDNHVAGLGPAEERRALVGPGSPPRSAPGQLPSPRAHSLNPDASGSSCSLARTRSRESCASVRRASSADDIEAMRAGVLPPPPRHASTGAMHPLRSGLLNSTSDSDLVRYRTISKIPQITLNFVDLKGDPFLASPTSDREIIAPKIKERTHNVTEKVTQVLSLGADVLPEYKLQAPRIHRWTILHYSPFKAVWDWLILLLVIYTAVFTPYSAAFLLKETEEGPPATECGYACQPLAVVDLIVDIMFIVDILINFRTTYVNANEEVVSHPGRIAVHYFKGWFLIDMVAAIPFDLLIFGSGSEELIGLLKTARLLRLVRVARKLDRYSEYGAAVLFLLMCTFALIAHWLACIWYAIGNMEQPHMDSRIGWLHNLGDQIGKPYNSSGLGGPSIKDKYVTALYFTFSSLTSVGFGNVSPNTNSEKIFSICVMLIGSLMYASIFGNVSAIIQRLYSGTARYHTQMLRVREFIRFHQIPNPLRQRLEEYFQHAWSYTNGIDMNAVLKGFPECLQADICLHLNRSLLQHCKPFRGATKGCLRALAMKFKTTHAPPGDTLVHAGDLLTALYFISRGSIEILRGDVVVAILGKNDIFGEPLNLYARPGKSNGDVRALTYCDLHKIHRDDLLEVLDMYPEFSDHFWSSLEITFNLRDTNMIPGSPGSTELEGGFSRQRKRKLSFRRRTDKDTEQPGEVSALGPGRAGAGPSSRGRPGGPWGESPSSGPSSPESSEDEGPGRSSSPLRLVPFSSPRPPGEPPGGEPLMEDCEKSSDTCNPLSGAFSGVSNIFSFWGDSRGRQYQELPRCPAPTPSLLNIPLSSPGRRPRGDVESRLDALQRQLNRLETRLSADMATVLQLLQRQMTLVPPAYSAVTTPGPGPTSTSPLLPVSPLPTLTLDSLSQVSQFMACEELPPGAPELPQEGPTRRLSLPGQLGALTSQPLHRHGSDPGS
The next assay concerns the target Cytochrome P450 3A4 (Homo sapiens, UniProt P08684). As to conditions: Potency.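 Note: confirmatory qHTS run detecting inhibitors and substrates of CYP3A4.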
The target of assay [7] is 72 kDa type IV collagenase (Homo sapiens, UniProt P08253). Kind of assay: Dose Response validation of uHTS RPN11 inhibitor hits using a MMP-2 Fluorescence assay. Type of assay: functional.
Assay [8] has as its target FAD-linked sulfhydryl oxidase ALR (Homo sapiens, UniProt P55789). As to the kind of experiment: inhibitors of human ALR sulfhydryl oxidase, dose response, biochemical, H2O2 detection, luminescence, cherry-pick (AID 493248).
Assay [9] in a line: inhibitors of firefly luciferase expression or activity, dose response, H4 neuroglioma cells, luminescence (AID 1990). It is filed as functional, cell-based.
Assay [10] is described as follows: inhibitors of SNCA 5'UTR-driven reporter translation, confirmation, H4 neuroglioma cells, luminescence (AID 1988). It is filed as functional, cell-based.
The next assay relates to HEK293. As to the kind of experiment: cytotoxicity in HEK293T NF-kB-Luc cells, SAR follow-up, cytotoxicity control for NF-kB activator project, cell-based, resazurin fluorescence (AID 493251). Type of assay: functional. The settings on record: Homo sapiens.
Assay [11] addresses T1, E3 ubiquitin-protein ligase XIAP (Homo sapiens, UniProt P98170). Kind of assay: Counter Screen using XIAP-Bir3 for Chemical Antagonists of Bir1/2 domains of IAP-family anti-apoptotic proteins. [Related pubchem assays (depositor defined):AID1018, AID1449, AID1514, AID1638, AID1749, AID1750, AID488957, AID488963].
A short description of assay [12]: Luminescence Cell-Based Dose Response HTS to Identify Inhibitors of 5'UTR Stem-Loop Driven Prion Protein mRNA Translation in H4 Neuroglioblastoma Cells. [Related pubchem assays: 1827 (Project Summary), 1813 (Primary HTS)]. It is filed as functional.
Assay [13] addresses T1, E3 ubiquitin-protein ligase XIAP. As to the kind of experiment: XIAP antagonists, biochemical, IAP family, fluorescence polarization (AID 1018). Type of assay: functional.
Assay [14] in a line: cytotoxicity in HEK-293T cells, dose response, cytotoxicity control for BCR NF-kB inhibitor project, luminescence, B-cell screen hits (AID 489021).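 Note: HEK-293T cells carrying an NF-kB luciferase reporter; cells exposed to compound for about 14 hours before viability readout.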 It is filed as functional, cell-based.
For assay [15], the target named is T2, Microphthalmia-associated transcription factor (Homo sapiens, UniProt O75030).
T2 sequence (O75030 whole entry): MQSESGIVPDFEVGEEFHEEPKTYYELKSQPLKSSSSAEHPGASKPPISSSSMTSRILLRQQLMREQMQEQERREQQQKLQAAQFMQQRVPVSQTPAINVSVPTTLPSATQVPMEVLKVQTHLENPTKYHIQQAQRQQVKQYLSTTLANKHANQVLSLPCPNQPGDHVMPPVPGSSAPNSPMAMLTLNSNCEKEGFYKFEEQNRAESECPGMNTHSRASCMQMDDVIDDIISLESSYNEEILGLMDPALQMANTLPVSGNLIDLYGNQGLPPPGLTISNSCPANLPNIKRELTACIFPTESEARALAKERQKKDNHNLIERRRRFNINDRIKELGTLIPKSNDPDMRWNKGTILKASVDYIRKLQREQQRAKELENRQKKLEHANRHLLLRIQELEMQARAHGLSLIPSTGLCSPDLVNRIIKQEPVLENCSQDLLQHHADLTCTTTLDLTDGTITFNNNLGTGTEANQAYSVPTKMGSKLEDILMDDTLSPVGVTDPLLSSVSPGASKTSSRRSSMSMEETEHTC
Kind of assay: TRPM1 promoter luciferase signal decrease, dose response, MITF inhibitor project, cell-based, SK-MEL-5, cherry-picked, set 3 (AID 493073).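 Note: SK-MEL-5 melanoma cells with luciferase driven by the MITF target TRPM1 promoter.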 Type of assay: functional.

Assay [16] deals with Delta-type opioid receptor (Homo sapiens, UniProt P41143). Kind of assay: Counterscreen for agonists of heterodimerization of the mu 1 (OPRM1) and delta 1 (OPRD1) opioid receptors: Luminescence-based cell-based high throughput dose response assay to identify agonists of OPRD1 homodimerization. [Related pubchem assays (depositor defined):AID504326, AID504355, AID504692, AID504904, AID504905]. Type of assay: functional.
Chain of Delta-type opioid receptor (P41143 whole entry): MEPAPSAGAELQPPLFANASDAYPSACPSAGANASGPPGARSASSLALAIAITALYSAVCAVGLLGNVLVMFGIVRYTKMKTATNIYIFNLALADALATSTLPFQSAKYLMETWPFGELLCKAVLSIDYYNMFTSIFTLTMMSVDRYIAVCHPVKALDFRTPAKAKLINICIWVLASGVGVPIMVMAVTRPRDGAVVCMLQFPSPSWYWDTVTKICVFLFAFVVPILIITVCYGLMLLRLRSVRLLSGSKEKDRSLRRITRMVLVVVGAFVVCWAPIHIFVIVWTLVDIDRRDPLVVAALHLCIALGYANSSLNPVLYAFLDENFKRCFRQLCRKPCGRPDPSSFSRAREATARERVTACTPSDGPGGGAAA

The target in a further assay is Mu-type opioid receptor (Homo sapiens, UniProt P35372). As to the kind of experiment: Counterscreen for agonists of heterodimerization of the mu 1 (OPRM1) and delta 1 (OPRD1) opioid receptors: Luminescence-based cell-based high throughput dose response assay to identify agonists of OPRM1 homodimerization. Type of assay: functional.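 Note: U2OS cells expressing OPRM1 and beta-arrestin as split beta-galactosidase partners.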
Chain of Mu-type opioid receptor (P35372 whole entry): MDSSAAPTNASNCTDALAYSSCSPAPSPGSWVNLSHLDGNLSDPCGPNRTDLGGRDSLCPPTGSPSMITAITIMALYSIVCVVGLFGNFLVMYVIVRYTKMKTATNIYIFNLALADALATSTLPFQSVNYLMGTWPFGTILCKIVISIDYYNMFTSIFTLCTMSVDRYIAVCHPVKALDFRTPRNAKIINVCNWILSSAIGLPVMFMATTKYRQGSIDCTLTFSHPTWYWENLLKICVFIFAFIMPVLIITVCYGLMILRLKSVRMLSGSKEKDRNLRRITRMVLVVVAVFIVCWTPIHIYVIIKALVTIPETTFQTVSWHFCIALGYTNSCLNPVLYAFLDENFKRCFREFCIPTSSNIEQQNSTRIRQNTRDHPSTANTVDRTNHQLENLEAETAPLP
For assay [17], the target named is 5-hydroxytryptamine receptor 5A (Homo sapiens, UniProt P47898). Kind of assay: Counterscreen for agonists of OPRM1-OPRD1 heterodimerization: luminescence-based cell-based high throughput dose response assay to identify agonists of 5-hydroxytryptamine (serotonin) 5A receptor (HTR5A). [Related pubchem assays (depositor defined):AID504326, AID504355, AID504692, AID504904, AID504905]. It is filed as functional.
Chain of 5-hydroxytryptamine receptor 5A (P47898 whole entry): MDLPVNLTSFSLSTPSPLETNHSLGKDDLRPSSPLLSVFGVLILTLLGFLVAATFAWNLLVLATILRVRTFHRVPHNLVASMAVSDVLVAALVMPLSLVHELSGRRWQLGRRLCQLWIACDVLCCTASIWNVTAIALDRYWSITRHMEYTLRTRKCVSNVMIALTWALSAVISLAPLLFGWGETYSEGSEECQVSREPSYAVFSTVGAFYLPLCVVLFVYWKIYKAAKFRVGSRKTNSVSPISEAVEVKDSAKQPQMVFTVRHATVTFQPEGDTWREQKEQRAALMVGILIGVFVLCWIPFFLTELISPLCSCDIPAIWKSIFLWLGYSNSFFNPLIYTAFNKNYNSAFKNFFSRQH

Assay [18] addresses Carboxy-terminal domain RNA polymerase II polypeptide A small phosphatase 1 (Homo sapiens, UniProt Q9GZU7). Kind of assay: inhibitors of CTDSP1, concentration-response testing, biochemical assay, absorbance-based, actives from ultra-high-throughput screening (AID 540297). Type of assay: functional.
Assay [19] can be described thus: NIH-3T3 fibroblast cytotoxicity, dose response, cytotoxicity control, cell-based, fluorescence, Alamar Blue, secondary assay (AID 2327).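 Note: NIH-3T3 mouse fibroblasts cultured with fluconazole at 8 µg/mL.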 Type of assay: functional.
Assay [20] in a line: inhibitors of intracellular T. cruzi replication, confirmation, NIH3T3 host cells, beta-gal luminescence (AID 2044).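 Note: intracellular parasites grown in NIH/3T3 mouse fibroblasts as host cells; luminescent beta-galactosidase reporter signal from transgenic T. cruzi replicating inside host cells; inhibitors lower the luminescence signal.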 It is filed as functional, cell-based.
A short description of assay [21]: cytotoxicity toward NIH3T3 fibroblasts, dose response, counter-screen, cell-based, ATP luminescence, mouse fibroblasts (AID 2010).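 Note: cells exposed to compound for about 90 hours before reading.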 It is filed as functional.
The nature of assay [22]: C. albicans growth with fluconazole, confirmation, fluorescence, retest (AID 2467). Type of assay: functional, cell-based.
Assay [23] addresses T3, Short transient receptor potential channel 4 (Mus musculus, UniProt Q9QUQ5).
T3 sequence (Q9QUQ5 whole entry): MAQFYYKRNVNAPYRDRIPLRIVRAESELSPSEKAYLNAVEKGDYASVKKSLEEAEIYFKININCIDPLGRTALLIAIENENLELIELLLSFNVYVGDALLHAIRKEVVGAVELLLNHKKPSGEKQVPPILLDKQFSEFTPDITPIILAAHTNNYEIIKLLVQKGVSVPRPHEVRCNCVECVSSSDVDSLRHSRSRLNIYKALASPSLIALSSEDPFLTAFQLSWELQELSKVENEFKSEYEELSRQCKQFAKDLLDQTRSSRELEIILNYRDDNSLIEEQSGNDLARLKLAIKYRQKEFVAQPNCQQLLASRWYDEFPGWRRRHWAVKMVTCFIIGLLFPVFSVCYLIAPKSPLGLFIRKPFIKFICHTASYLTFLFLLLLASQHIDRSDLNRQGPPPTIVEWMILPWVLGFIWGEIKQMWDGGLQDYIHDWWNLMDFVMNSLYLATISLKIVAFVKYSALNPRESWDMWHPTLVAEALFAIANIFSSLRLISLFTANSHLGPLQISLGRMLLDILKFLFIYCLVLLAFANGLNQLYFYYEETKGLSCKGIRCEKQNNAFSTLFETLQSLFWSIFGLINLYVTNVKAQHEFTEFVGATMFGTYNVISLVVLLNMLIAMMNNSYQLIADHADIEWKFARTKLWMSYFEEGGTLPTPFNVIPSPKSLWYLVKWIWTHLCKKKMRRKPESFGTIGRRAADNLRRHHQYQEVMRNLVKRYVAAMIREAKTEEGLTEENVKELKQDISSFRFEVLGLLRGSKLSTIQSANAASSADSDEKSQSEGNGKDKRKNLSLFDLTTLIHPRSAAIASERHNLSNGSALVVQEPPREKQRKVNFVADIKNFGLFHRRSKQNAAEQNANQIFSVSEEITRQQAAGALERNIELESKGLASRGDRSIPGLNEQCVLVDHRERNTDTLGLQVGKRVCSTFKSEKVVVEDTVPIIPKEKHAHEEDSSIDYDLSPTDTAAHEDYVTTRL
As to the kind of experiment: mouse TRPC4 channel activators, dose response, cell-based, HEK293 TRPC4/mu-opioid, Fluo-4 calcium (AID 434937). It is filed as functional.

Another assay addresses Cysteine protease ATG4B (Homo sapiens, UniProt Q9Y4P1). It is filed as functional.
For another assay, the target named is Troponin, cardiac muscle (Homo sapiens, UniProt P19429+P45379+P63316). As to the kind of experiment: Fluorescence-based biochemical high throughput dose response assay for activators of the calcium sensitivity of cardiac Regulated Thin Filaments (RTF). [Related pubchem assays (depositor defined):AID493008, AID493018, AID504382, AID504383]. Type of assay: protein-complex assay.

For another assay, the target named is Phospholipase A2 (Homo sapiens, UniProt P04054). It is filed as functional.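 Note: confirmatory dose-response counterscreen on phospholipase A2, testing hits that came from an ultra-high-throughput screen for ATG4B inhibitors.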
Chain of Phospholipase A2 (P04054 whole entry, the tested form may be a part): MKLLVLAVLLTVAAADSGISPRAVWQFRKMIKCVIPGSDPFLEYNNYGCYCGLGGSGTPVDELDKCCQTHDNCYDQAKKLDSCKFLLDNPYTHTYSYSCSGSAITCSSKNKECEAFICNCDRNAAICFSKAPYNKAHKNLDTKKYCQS
A further assay deals with CHO. Kind of assay: cytotoxicity in TLR9-MyD88 CHO cells, dose response, cytotoxicity control for TLR9-MyD88 binding inhibitor project, cell-based, luminescence (AID 588339).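 Note: CHO cells stably coexpressing TLR9 and MyD88 fusions from primary screen; compound exposure lasted 48 hours before viability readout.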 As to conditions: Cricetulus griseus. It is filed as functional, hamster.
Assay [24] deals with Heat shock protein HSP 90-alpha (Homo sapiens, UniProt P07900). Type of assay: functional, organism-based.
For the next assay, the target named is Beta Lactamase (Pseudomonas aeruginosa, UniProt Q932Y6). Kind of assay: beta-lactamase reporter inhibitor potency, dose response, artefact control for TLR9-MyD88 binding inhibitor project, BLA reporter cells, FRET fluorescence (AID 588341).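 Note: cell based assay in CHO-K1 cells stably expressing beta-lactamase.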 Type of assay: cell-based.
Chain of Beta Lactamase (Q932Y6 whole entry): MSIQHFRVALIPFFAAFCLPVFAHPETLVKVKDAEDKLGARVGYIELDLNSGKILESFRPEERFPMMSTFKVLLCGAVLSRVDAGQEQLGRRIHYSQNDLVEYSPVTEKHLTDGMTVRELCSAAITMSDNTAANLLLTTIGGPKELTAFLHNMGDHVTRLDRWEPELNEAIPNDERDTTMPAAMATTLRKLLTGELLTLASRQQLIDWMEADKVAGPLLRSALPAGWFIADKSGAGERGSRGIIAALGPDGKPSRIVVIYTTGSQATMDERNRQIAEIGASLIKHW
Assay [25] addresses Photoreceptor-specific nuclear receptor (Homo sapiens, UniProt Q9Y5X4). It is filed as functional, cell-based.

Activity calls are given as the source filed them.

Chain of Cysteine protease ATG4B (Q9Y4P1 whole entry): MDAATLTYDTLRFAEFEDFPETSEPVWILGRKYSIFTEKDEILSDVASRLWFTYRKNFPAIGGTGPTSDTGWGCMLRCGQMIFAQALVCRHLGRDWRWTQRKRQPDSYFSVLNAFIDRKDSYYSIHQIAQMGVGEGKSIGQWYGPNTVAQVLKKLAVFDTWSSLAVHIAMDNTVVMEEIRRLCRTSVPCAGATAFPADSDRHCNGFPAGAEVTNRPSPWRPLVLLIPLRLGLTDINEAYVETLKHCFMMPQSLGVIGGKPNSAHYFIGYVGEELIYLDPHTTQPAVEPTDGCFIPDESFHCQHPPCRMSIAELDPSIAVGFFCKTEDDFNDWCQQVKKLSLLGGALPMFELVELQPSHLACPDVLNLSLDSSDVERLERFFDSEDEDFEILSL
T1 sequence (P98170 whole entry): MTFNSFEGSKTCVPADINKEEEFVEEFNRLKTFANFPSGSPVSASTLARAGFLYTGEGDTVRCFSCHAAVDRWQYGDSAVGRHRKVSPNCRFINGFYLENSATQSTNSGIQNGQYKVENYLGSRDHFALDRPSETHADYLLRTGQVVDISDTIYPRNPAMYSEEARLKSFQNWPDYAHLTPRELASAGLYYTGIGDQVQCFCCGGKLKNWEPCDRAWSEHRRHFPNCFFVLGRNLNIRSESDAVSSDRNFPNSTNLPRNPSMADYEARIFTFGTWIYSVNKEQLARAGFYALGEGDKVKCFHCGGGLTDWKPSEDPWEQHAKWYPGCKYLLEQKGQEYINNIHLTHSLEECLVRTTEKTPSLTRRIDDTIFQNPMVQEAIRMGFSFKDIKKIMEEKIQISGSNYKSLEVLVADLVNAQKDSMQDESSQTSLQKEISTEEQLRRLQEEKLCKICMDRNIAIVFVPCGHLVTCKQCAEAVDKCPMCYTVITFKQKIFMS
Chain of Photoreceptor-specific nuclear receptor (Q9Y5X4 whole entry): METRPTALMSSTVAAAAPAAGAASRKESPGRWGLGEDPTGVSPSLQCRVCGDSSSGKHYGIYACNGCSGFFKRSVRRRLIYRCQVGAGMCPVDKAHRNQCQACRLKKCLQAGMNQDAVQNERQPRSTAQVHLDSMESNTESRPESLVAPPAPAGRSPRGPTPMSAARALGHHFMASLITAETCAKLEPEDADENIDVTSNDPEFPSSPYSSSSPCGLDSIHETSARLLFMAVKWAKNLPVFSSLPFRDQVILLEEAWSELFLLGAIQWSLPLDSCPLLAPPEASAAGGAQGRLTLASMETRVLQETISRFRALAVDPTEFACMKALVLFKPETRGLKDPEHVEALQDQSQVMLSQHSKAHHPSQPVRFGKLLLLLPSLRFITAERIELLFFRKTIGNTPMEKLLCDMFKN
Chain of FAD-linked sulfhydryl oxidase ALR (P55789 whole entry): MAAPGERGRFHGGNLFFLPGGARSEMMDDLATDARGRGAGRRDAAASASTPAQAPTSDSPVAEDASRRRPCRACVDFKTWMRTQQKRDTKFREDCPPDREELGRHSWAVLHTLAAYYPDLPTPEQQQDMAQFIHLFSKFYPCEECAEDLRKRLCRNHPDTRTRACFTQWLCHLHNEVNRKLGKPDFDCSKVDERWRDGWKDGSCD
Chain of Carboxy-terminal domain RNA polymerase II polypeptide A small phosphatase 1 (Q9GZU7 whole entry, the tested form may be a part): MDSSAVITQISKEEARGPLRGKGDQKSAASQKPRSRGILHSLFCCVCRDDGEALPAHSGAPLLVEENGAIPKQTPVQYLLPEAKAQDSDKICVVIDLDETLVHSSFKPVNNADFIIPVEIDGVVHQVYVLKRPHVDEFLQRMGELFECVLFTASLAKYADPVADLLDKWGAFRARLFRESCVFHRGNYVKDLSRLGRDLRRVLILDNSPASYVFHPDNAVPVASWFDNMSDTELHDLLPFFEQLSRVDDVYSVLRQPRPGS

In the case of `COc1ccc(CNC(=O)CCCCCNc2nc(S)nc3ccccc23)cc1`, the EC50 in assay [1] is 0.0255 µM (active).

With `CCOc1ccc(C(O)Cn2c(=N)n(CCN3CCCCC3)c3ccccc32)cc1` (configuration not stated), the values for the IC50 in assay [2] and in assay [3] were 2.55 µM (active) and 5.18 µM (active), respectively.

For `CCN(CC)c1ccc(N)cc1`, the IC50 was 4.69 µM (active) in assay [4], 5.11 µM (active) on Prothrombin and > 100 µM (inactive) in assay [7]. The CC50 in [5] was 27.9 µM (active). The half-maximal activity concentration (AC50) is 10 µM (inconclusive) in assay [6], 25.1 µM (inconclusive) on Cytochrome P450 3A4 and 6.78 µM (active) in assay [8].

As to `CCOc1ccc(-c2noc(CCC(=O)O)n2)cc1`, the EC50 in [9] was 6.28 µM (active); in [10], 7.97 µM (active); in assay [12], 15 µM (active). Moreover, the IC50 in the assay with HEK293 is > 80 µM (inactive); in [11] it was > 100 µM (inactive); in assay [13], > 100 µM (not active); in assay [14] it was > 80 µM (inactive). The AC50 in [15] was 2.61 µM (active).

For the compound `COc1ccc(-n2c3c(cc(C(=O)NNc4ccccc4C)c2=O)C(=O)CC(C)(C)C3)cc1`, the EC50 in assay [16] was > 92.5 µM (inactive); on Mu-type opioid receptor it was 14.5 µM (inactive); in assay [17], > 92.5 µM (inactive).

For the compound `Cc1cnc(C(=O)OCc2nc(O)c3sccc3n2)cn1`, the IC50 in [18] was 7.9 µM (active).

As to `CCC(C)OC(=O)C[N+](C)(C)CCOC1CC2CCC1(C)C2(C)C` (configuration not stated), the EC50 in assay [19] is > 150 µM (inconclusive); in assay [20], 0.341 µM (active); in assay [21], > 60 µM (not active); in [22] it was 4.36 µM (active). The IC50 in assay [2] was 0.418 µM (active); in [3], < 0.25 µM (active).

As for `OCC1(CC2CCCCO2)CCN(Cc2ccccc2-c2ccco2)CC1` (configuration not stated), the EC50 in assay [16] was > 92.4 µM (inactive); on Mu-type opioid receptor, > 92.4 µM (inactive); in [23] it was 0.668 µM (active); in [17], > 92.4 µM (inactive).

For the compound `Fc1ccc(CN=C(S)NCc2ccc(F)cc2)cc1`, the figures for the IC50 on Cysteine protease ATG4B and on Phospholipase A2 were 12.3 µM (active) and 9.33 µM (active), respectively. In addition, at Troponin, cardiac muscle, the EC50 was > 71.5 µM (inactive).

On to `Cc1sc(NC(=O)c2ccccc2)c(C(=O)c2ccccc2)c1C`, for which the figures for the IC50 on Cysteine protease ATG4B and on Phospholipase A2 were 15.3 µM (active) and 9.18 µM (active), respectively.

Regarding `O=c1c(Br)ccc(Br)cc1Br`, the 50% inhibitory concentration (IC50) in the assay on CHO is 0.558 µM (active); at Beta Lactamase it was 6.14 µM (active); in assay [25] it was 3.72 µM (active). Besides, in assay [24], the AC50 was 0.438 µM (active).

In the case of `CCC(C)(C)C(=O)O` [DIMEBUTIC ACID], in [6], the AC50 is 12.6 µM (inconclusive).
